# Patent publication US8206732B2, “Pyrithione biocides enhanced by silver, copper, or zinc ions” (Arch Chemicals, Inc., priority 1999, dated 2012)
# Values joined by “and” are separate entries in the source; they are usually repeats but may differ in a detail not shown here. Identical values can stand only once.
# How the values were obtained:
# [1] = tested on: Pseudomonas aeruginosa ATCC 9027; test: MIC in Tryptic Soy Broth, microtiter (Example 1); assay type: cell-based; conditions: 28° C.
# [2] = tested on: Aspergillus niger ATCC 6275; test: MIC in Tryptic Soy Broth, microtiter (Example 1); assay type: cell-based; conditions: 28° C.
# Fusarium sp. [3] = test: MIC in Tryptic Soy Broth, microtiter (Example 1); assay type: cell-based; conditions: TSB with 0.5 ppm Cu (II), 28° C., 5 days
# Experimental: Equal volumes of bacterial suspension (10^6 bacteria per milliliter of TSB) containing Pseudomonas aeruginosa ATCC 9027 or fungal spore suspension (10^5 spores per milliliter of TSB) containing Aspergillus niger ATCC 6275 or species of Fusarium and Cephalosporium isolated from contaminated metalworking fluid were added to each microtiter plate well, and the plates were incubated at 28° C. Controls were prepared for cultures inoculated into TSB with and without Cu (II).
# Cephalosporium sp. = test: MIC in Tryptic Soy Broth, microtiter (Example 1); assay type: cell-based; conditions: 28° C.
# [4] = tested on: Escherichia coli ATCC 10536; test: Zone of inhibition test (paper disc on TSA); assay type: cell-based; conditions: 6.5 mm discs; 0.135% pyrithione, 0.1% ZnCl2 or both; 28° C., 24 hr
# [5] = tested on: Pseudomonas aeruginosa NCIMB 6749; test: Zone of inhibition test (paper disc on TSA); assay type: cell-based; conditions: 6.5 mm discs; 0.135% pyrithione, 0.1% ZnCl2 or both; 28° C., 24 hr
# [6] = tested on: Pseudomonas aeruginosa NCIMB 6749; test: Checkerboard MIC test, pyrithiones with zinc salts; assay type: cell-based; conditions: pyrithione alone or pyrithione concentration in the inhibitory mixture; TSB, 28 C, 3 days
# Fusarium sp. [7] = test: Checkerboard MIC test, pyrithiones with zinc salts; assay type: cell-based; conditions: pyrithione alone or pyrithione concentration in the inhibitory mixture; TSB, 28 C, 5 days
# Experimental: Mixtures of pyrithione and zinc or silver in various proportions were tested for relative efficacy by a modification of the procedure described by Dougherty, et al.
# Equal volumes of bacteria (10^6 cells/ml) or fungi (10^5 spores/ml) were added to each microtiter plate well. The plates were incubated at 28 C for 3 days (bacteria) or 5 days (fungi), and the minimum inhibitory concentration (MIC) of biocide was determined. The Fractional Inhibitory Concentration (FIC=concentration of biocide in an inhibitory mixture divided by the MIC of the pure biocide) was determined, and the FIC Index (sum of the two FIC's) was calculated. The type of interaction was categorized according to the magnitude of the Index: Synergistic (<1), Additive (1), or Antagonistic (>1).
# [8] = tested on: Staphylococcus aureus 27217; test: Checkerboard MIC test, pyrithiones with silver salts; assay type: cell-based; conditions: NaPT alone or in the inhibitory mixture with silver salt; TSB pH 7.3, 35° C., 1 to 2 days
# [9] = tested on: Pseudomonas aeruginosa 9027; test: as above; assay type: cell-based; conditions: NaPT alone or in the inhibitory mixture with silver salt; TSB pH 7.3, 35° C., 1 to 2 days
# Candida albicans 10251 = test: as above; assay type: cell-based; conditions: NaPT alone or in the inhibitory mixture with silver salt; TSB pH 7.3, 35° C., 1 to 2 days
# Pityrosporum ovale 1452 = test: as above; assay type: cell-based; conditions: NaPT alone or in the inhibitory mixture with silver salt; Ushijima Medium pH 5.5, 35° C., 1 to 2 days
# [10] = tested on: P. aeruginosa 9027 free-living cells; test: Viable free-living cells in bulk metalworking fluid (Example 5); assay type: cell-based, Pseudomonas aeruginosa; conditions: 100 PPM NaPT; for viable free-living cells in the bulk fluid: 5% soluble oil MWF, 2.5 PPM Zn(II) or both, 4 days
# [11] = tested on: Fusarium sp. free-living cells; test: as above; assay type: cell-based; conditions: 100 PPM NaPT, 10 PPM Zn (II) or both, 4 days after treatment
# Experimental: (§1) Experiments were conducted to investigate the efficacy of the composition of the present invention to inhibit the survival, growth, and proliferation of free-living and biofilm populations of bacteria and fungi in metalworking fluids. […] Metalworking fluids (MWF) employed included 5% soluble oil MWF, 5% semi-synthetic MWF, or 5% synthetic MWS. For testing against bacteria, metalworking fluids were supplemented with 2% (weight-to-weight ratio (w:w)) of 5 g/L yeast extract (Difco), Metalworking fluids were supplemented with 2% (weight-to-weight (w:w)) of Tryptic Soy Broth (Difco) for fungal tests.
# (§2) For each experiment, three ml of a 5% metalworking fluid was added to each of twelve, sterile, 16 mm×150 mm glass culture tubes. […] Fusarium sp. was added to the tubes to final concentrations of 10^5 spores/ml for the fungal tests. Tubes incubated for 3 days at 28° C. and 180 rpms.
# (§3) After the treatments additions were performed, the culture tubes resumed incubation at 28° C., 180 rpms for an additional 4 days.
# (§4) After 4 days, culture tubes were removed from the incubator and viable counts of organisms from the bulk MWF fluid and the biofilm were determined using serial dilution and drop plating techniques. For biofilms, polycarbonate discs were removed from tubes, dip-rinsed in three successive washes of de-ionized water to remove loosely attached cells, and transferred to 25 mm×150 mm culture tubes containing 10 ml of sterile, de-ionized water. Biofilms were removed from discs and resuspended by vortexing tubes for 30 seconds. Bacteria were plated on to R2A Agar plates and incubated at 37° C. Fungi were plated onto Malt Agar plates and incubated at 28° C. Mean colony forming units per ml (for bulk) and per square cm (cm^2) biofilm were determined for each experimental treatment.
# Fusarium sp. biofilm = test: Viable biofilm cells on discs in metalworking fluid (Example 5); assay type: cell-based; conditions: polycarbonate disc, 100 PPM NaPT, 10 PPM Zn (II) or both, 4 days after treatment
# Experimental: as §1, §2, §3, §4
smiles,measurement,setting,value
"[Na+].[O-][n+]1ccccc1[S-] [NaPT, sodium pyrithione]",MIC NaPT (with 0.5 ppm Cu),"[1]; TSB with 0.5 ppm Cu (II), 5-6 days",256 ppm
same,MIC,"[1]; TSB, incubated 5-6 days, single agent (NaPT without Cu)",256 ppm
same,MIC NaPT (with 0.5 ppm Cu),"[2]; TSB with 0.5 ppm Cu (II), 7-8 days",8 ppm
same,MIC,"[2]; TSB, incubated 7-8 days, single agent (NaPT without Cu)",128 ppm
same,MIC NaPT (with 0.5 ppm Cu),Fusarium sp. [3],8 ppm
same,MIC NaPT (with 0.5 ppm Cu),"Cephalosporium sp.; TSB with 0.5 ppm Cu (II), 5 days",16 ppm
same,MIC,"Cephalosporium sp.; TSB, incubated 5 days, single agent (NaPT without Cu)",64 ppm
same,Zone of Inhibition,[4],35 mm
same,Zone of Inhibition,[5],8 mm
same,MIC Pyrithione,[6],128 ppm
same,MIC Pyrithione,Fusarium sp. [7],411 ppm
same,MIC NaPT,[8],4 ppm and 8 ppm
same,MIC NaPT,[9],256 ppm
same,MIC NaPT,Candida albicans 10251,16 ppm
same,MIC NaPT,Pityrosporum ovale 1452,4 ppm
same,viable free-living cells in the bulk fluid,[10]; tube with Polycarbonate surface,4.9 × 10^5 cells/ml
same,viable free-living cells in the bulk fluid,[10]; tube with Rubber surface,50 cells/ml
same,viable free-living cells in the bulk fluid,[10]; tube with Steel surface,3.5 × 10^6 cells/ml
same,viable free-living microorganisms,"[10]; 5% synthetic MWF, 10 PPM Zn (II) or both, 4 days after treatment",7.8 × 10^6 cells/ml and 7.0 × 10^5 cells/ml and 5.4 × 10^5 cells/ml
same,viable free-living microorganisms,[11]; 5% semisynth. MWF,2.8 × 10^5 cells/ml
same,viable free-living microorganisms,[11]; 5% solub. oil MWF,4.2 × 10^6 cells/ml
same,viable free-living microorganisms,[11]; 5% synthetic MWF,6.0 × 10^6 cells/ml
same,viable free-living microorganisms,[11]; 100% TSB,0 cells/ml
same,viable biofilm microorganisms,Fusarium sp. biofilm; 5% semisynth. MWF,18 cells/cm^2
same,viable biofilm microorganisms,Fusarium sp. biofilm; 5% solub. oil MWF,4.6 × 10^5 cells/cm^2
same,viable biofilm microorganisms,Fusarium sp. biofilm; 5% synthetic MWF,7.3 × 10^4 cells/cm^2
same,viable biofilm microorganisms,Fusarium sp. biofilm; 100% TSB,96 cells/cm^2
